Calls of active or inactive are those of the source.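 The calls were made as follows: active = IC50 of 10 µM or lower; inactive = IC50 above 10 µM.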
Target: Guanyl-specific ribonuclease T1 (Aspergillus oryzae (strain ATCC 42149 / RIB 40)) (UniProt P00651)
Assay: RNase T1 inhibition potency, counter-screen, late-stage follow-up, counter-screen for TPT1 inhibitor project, biochemical, fluorescence polarization, IC50 (AID 2837)
Conditions: RNase T1 cleavage of B-U6G-AF

Sequence of Guanyl-specific ribonuclease T1 (Aspergillus oryzae (strain ATCC 42149 / RIB 40)) (P00651 whole entry, looked up): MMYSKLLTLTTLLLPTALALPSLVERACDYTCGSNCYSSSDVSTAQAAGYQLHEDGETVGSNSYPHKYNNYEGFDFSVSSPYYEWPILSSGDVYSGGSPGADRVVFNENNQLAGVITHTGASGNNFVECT

Row | SMILES | IC50
1 | O=c1oc2c(O)c(O)cc3c(=O)oc4c(O)c(O)cc1c4c23 | > 49.8 µM (inactive)
2 | Cc1[nH]n(-c2ccc(S(=O)(=O)O)cc2)c(=O)c1N[N-]c1ccc(C2=CC(=O)/C(=N\[N-]c3ccc4c(S(=O)(=O)O)cc(S(=O)(=O)O)c(N)c4c3O)C=C2)cc1O.[Cu+].[Cu+] | > 49.8 µM (inactive)
3 | Cc1ccc(N2C(=O)NC(=O)/C(=C\c3ccc([N+](=O)[O-])o3)C2=O)cc1 | inactive
4 | NC(=O)c1cc[n+](CC2=C(C(=O)O)N3C(=O)[C@@H](NC(=O)C(c4ccccc4)S(=O)(=O)O)[C@H]3SC2)cc1 (stereo not given in full) | > 49.8 µM (inactive)
5 | NS(=O)(=O)c1cc(C(=O)NC2CCSc3ccccc32)ccc1Cl (stereo not given) | > 49.8 µM (inactive)
6 | COc1ccc(OC)c(N2C(=O)/C(=C/c3ccco3)C(=O)NC2=S)c1 | inactive
7 | Cc1ccccc1N1C(=O)/C(=C/c2ccco2)C(=O)NC1=S | inactive
8 | OC(Cn1cncn1)(Cn1cncn1)c1ccc(F)cc1F | > 49.8 µM (inactive)
9 | CC1=C(C#N)C(=O)N(C2CCS(=O)(=O)C2)C(=O)/C1=C\c1ccco1 (stereo not given) | > 49.8 µM (inactive)
10 | Cc1cc(C)n(Cc2ccc(C(=O)NN=Cc3ccc(-c4ccc([N+](=O)[O-])cc4)o3)o2)n1 | inactive
